Laboratory results reported in patent US20100298141A1, “SUBSTITUTED PYRIDINE N-OXIDE HERBICIDES” (E. I. DU PONT DE NEMOURS AND COMPANY, priority 2007, published 2010).

Experiments:
velvetleaf [1] = assay: Test A pre-/postemergence greenhouse test; assay type: in vivo, Abutilon theophrasti; conditions: for Velvetleaf plant response rating: 0 to 100 scale; for Plant response rating, Velvetleaf: 0 to 100 scale where 0 is no effect and 100 is complete control
How it was run: (§1)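 Seeds sown in a loam soil–sand blend got a preemergence directed soil spray of compound in a non-phytotoxic solvent mixture containing surfactant. Postemergence sprays of the same formulation went at the same time onto plants 2–10 cm tall at the one- to two-leaf stage. Injury was scored visually against untreated controls after about ten days in the greenhouse.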

barnyardgrass = assay: Test C flooded paddy test; assay type: in vivo, Echinochloa crus-galli; conditions: Flood
How it was run: (§2)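 Compound was added to standing water 3 cm above soil, flood maintained, and plants held in a greenhouse before visual scoring against controls at 13 to 15 days.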

duck salad = assay: Test C flooded paddy test; assay type: in vivo, Heteranthera limosa; conditions: Flood
How it was run: as §2

wild oat = assay: Test C pre-/postemergence test; assay type: in vivo, Avena fatua
How it was run: (§3)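 Test chemicals were formulated with surfactant in a non-phytotoxic solvent and sprayed both on freshly planted seeds (preemergence) and on 1- to 4-leaf plants of 2–18 cm (postemergence). Flooded-paddy pots received compound directly into 3 cm of standing water, maintained for the test.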

wheat = assay: Test A pre-/postemergence greenhouse test; assay type: in vivo, Triticum aestivum; conditions: for Wheat plant response rating: 0 to 100 scale; for Plant response rating, Wheat: 0 to 100 scale where 0 is no effect and 100 is complete control
How it was run: as §1

bermudagrass = assay: Test C pre-/postemergence test; assay type: in vivo, Cynodon dactylon; conditions: for Plant response rating (0 to 100), Bermudagrass: 250 g ai/ha
How it was run: as §3

velvetleaf [2] = assay: Test C pre-/postemergence test; assay type: in vivo, Abutilon theophrasti
How it was run: as §3

Surinam grass = assay: Test C pre-/postemergence test; assay type: in vivo, Brachiaria decumbens
How it was run: as §3

eastern black nightshade = assay: Test C pre-/postemergence test; assay type: in vivo, Solanum ptycanthum
How it was run: as §3

lambsquarters = assay: Test C pre-/postemergence test; assay type: in vivo, Chenopodium album
How it was run: as §3

corn = assay: Test A pre-/postemergence greenhouse test; assay type: in vivo, Zea mays; conditions: for Corn plant response rating: 0 to 100 scale; for Plant response rating, Corn: 0 to 100 scale where 0 is no effect and 100 is complete control
How it was run: as §1

giant foxtail [3] = assay: Test A pre-/postemergence greenhouse test; assay type: in vivo, Setaria faberi; conditions: for Foxtail, Giant plant response rating: 0 to 100 scale; for Plant response rating, Foxtail, Giant: 0 to 100 scale where 0 is no effect and 100 is complete control
How it was run: as §1

common ragweed = assay: Test C pre-/postemergence test; assay type: in vivo, Ambrosia elation
How it was run: as §3

giant foxtail [4] = assay: Test C pre-/postemergence test; assay type: in vivo, Setaria faberii; conditions: for Plant response rating (0 to 100), Foxtail, Giant: 250 g ai/ha
How it was run: as §3

rice = assay: Test C flooded paddy test; assay type: in vivo, Oryza sativa; conditions: Flood
How it was run: as §2

johnsongrass = assay: Test C pre-/postemergence test; assay type: in vivo, Sorghum halepense; conditions: for Plant response rating (0 to 100), Johnsongrass: 250 g ai/ha
How it was run: as §3

redroot pigweed = assay: Test A pre-/postemergence greenhouse test; assay type: in vivo, Amaranthus retroflexus; conditions: for Pigweed plant response rating: 0 to 100 scale
How it was run: as §1

Goosegrass = assay: Test C pre-/postemergence test; assay type: in vivo, Eleusin indica; conditions: for Plant response rating (0 to 100), Goosegrass: 250 g ai/ha
How it was run: as §3

[5] = Postemergence, 125 g ai/ha, 0 is no effect, 100 is complete control
[6] = Postemergence, 500 g ai/ha, 0 is no effect, 100 is complete control
[7] = Preemergence, 125 g ai/ha, 0 no effect, 100 complete control
[8] = 31 g ai/ha, scale 0 to 100 (0 no effect, 100 complete control)
[9] = 62 g ai/ha, scale 0 to 100, 0 no effect, 100 complete control, 13 to 15 days
[10] = 125 g ai/ha, scale 0 to 100, 0 no effect, 100 complete control, 13 to 15 days
[11] = 250 g ai/ha, scale 0 to 100 (0 no effect, 100 complete control)
[12] = 31 g ai/ha, Preemergence, scale 0 to 100
[13] = 62 g ai/ha, preemergence, scale 0 (no effect) to 100 (complete control)
[14] = preemergence, 125 g ai/ha, scale 0 (no effect) to 100 (complete control)
[15] = 62 g ai/ha, Preemergence, scale 0 to 100
[16] = Preemergence, 31 g ai/ha, scale 0 to 100 (0 no effect, 100 complete control)

Cn1nc(C(F)(F)F)c(C(Cl)S(=O)(=O)c2cccc[n+]2[O-])c1Cl (stereo not shown) [Compound 12]
Velvetleaf plant response rating (velvetleaf [1]; [5]): 0
Velvetleaf plant response rating (velvetleaf [1]; [6]): 0
Velvetleaf plant response rating (velvetleaf [1]; [7]): 0
Plant response rating, Velvetleaf (velvetleaf [1]; Preemergence, 500 g ai/ha): 0
Plant response rating, Barnyardgrass (barnyardgrass; [8]): 0
Plant response rating, Barnyardgrass (barnyardgrass; [9]): 50
Plant response rating, Barnyardgrass (barnyardgrass; [10]): 80
Plant response rating, Barnyardgrass (barnyardgrass; [11]): 85
Plant response rating, Ducksalad (duck salad; [8]): 40
Plant response rating, Ducksalad (duck salad; [9]): 95
Plant response rating, Ducksalad (duck salad; [10]): 100
Plant response rating, Ducksalad (duck salad; [11]): 100
Oat, Wild plant response rating (wild oat; [12]): 0
Oat, Wild plant response rating (wild oat; [13]): 0
Plant response rating (0 to 100), Oat, Wild (wild oat; Preemergence, 250 g ai/ha): 0
Oat, Wild plant response rating (wild oat; [14]): 0
Wheat plant response rating (wheat; [5]): 0
Wheat plant response rating (wheat; [6]): 40
Wheat plant response rating (wheat; [7]): 0
Plant response rating, Wheat (wheat; Preemergence, 500 g ai/ha): 30
Bermudagrass plant response rating (bermudagrass; [12]): 100
Bermudagrass plant response rating (bermudagrass; [13]): 100
Plant response rating (0 to 100), Bermudagrass (bermudagrass; Preemergence): 100
Bermudagrass plant response rating (bermudagrass; [14]): 100
Velvetleaf plant response rating (velvetleaf [2]; [13]): 0
Plant response rating (0 to 100), Velvetleaf (velvetleaf [2]; Preemergence, 250 g ai/ha): 0
Velvetleaf plant response rating (velvetleaf [2]; [14]): 0
Surinam Grass plant response rating (Surinam grass; [13]): 0
Plant response rating (0 to 100), Surinam Grass (Surinam grass; Preemergence, 250 g ai/ha): 40
Surinam Grass plant response rating (Surinam grass; [14]): 30
Nightshade plant response rating (eastern black nightshade; [12]): 100
Nightshade plant response rating (eastern black nightshade; [13]): 100
Plant response rating (0 to 100), Nightshade (eastern black nightshade; Preemergence, 250 g ai/ha): 100
Nightshade plant response rating (eastern black nightshade; [14]): 100
Lambsquarters plant response rating (lambsquarters; [12]): 0
Lambsquarters plant response rating (lambsquarters; [13]): 100
Plant response rating (0 to 100), Lambsquarters (lambsquarters; Preemergence, 250 g ai/ha): 100
Lambsquarters plant response rating (lambsquarters; [14]): 100
Corn plant response rating (corn; [5]): 0
Corn plant response rating (corn; [6]): 0
Corn plant response rating (corn; [7]): 0
Plant response rating, Corn (corn; Preemergence, 500 g ai/ha): 30
Foxtail, Giant plant response rating (giant foxtail [3]; [5]): 50
Foxtail, Giant plant response rating (giant foxtail [3]; [6]): 70
Foxtail, Giant plant response rating (giant foxtail [3]; [7]): 80
Plant response rating, Foxtail, Giant (giant foxtail [3]; Preemergence, 500 g ai/ha): 100
Ragweed plant response rating (common ragweed; [12]): 0
Ragweed plant response rating (common ragweed; [13]): 0
Plant response rating (0 to 100), Ragweed (common ragweed; Preemergence, 250 g ai/ha): 20
Foxtail, Giant plant response rating (giant foxtail [4]; [12]): 80
Foxtail, Giant plant response rating (giant foxtail [4]; [13]): 80
Plant response rating (0 to 100), Foxtail, Giant (giant foxtail [4]; Preemergence): 100
Foxtail, Giant plant response rating (giant foxtail [4]; [14]): 80
Plant response rating, Rice (rice; [8]): 60
Plant response rating, Rice (rice; [9]): 60
Plant response rating, Rice (rice; [10]): 70
Plant response rating, Rice (rice; [11]): 80
Johnsongrass plant response rating (johnsongrass; [12]): 0
Johnsongrass plant response rating (johnsongrass; [13]): 70
Plant response rating (0 to 100), Johnsongrass (johnsongrass; Preemergence): 100
Johnsongrass plant response rating (johnsongrass; [14]): 100
Pigweed plant response rating (redroot pigweed; [5]): 0
Pigweed plant response rating (redroot pigweed; [6]): 0
Goosegrass plant response rating (Goosegrass; [12]): 100
Goosegrass plant response rating (Goosegrass; [13]): 100
Plant response rating (0 to 100), Goosegrass (Goosegrass; Preemergence): 100
Goosegrass plant response rating (Goosegrass; [14]): 100

Cn1nc(C(F)(F)F)c(CS(=O)(=O)c2cccc[n+]2[O-])c1OCC(F)(F)F [Compound 29]
Velvetleaf plant response rating (velvetleaf [1]; [5]): 40
Velvetleaf plant response rating (velvetleaf [1]; [6]): 70
Velvetleaf plant response rating (velvetleaf [1]; [7]): 40
Plant response rating, Velvetleaf (velvetleaf [1]; Preemergence, 500 g ai/ha): 100
Plant response rating, Barnyardgrass (barnyardgrass; [8]): 0
Plant response rating, Barnyardgrass (barnyardgrass; [9]): 0
Plant response rating, Barnyardgrass (barnyardgrass; [10]): 40
Plant response rating, Barnyardgrass (barnyardgrass; [11]): 80
Plant response rating, Ducksalad (duck salad; [8]): 70
Plant response rating, Ducksalad (duck salad; [9]): 80
Plant response rating, Ducksalad (duck salad; [11]): 90
Oat, Wild plant response rating (wild oat; [15]): 50
Plant response rating, Oat, Wild (wild oat; [16]): 20
Wheat plant response rating (wheat; [5]): 50
Wheat plant response rating (wheat; [6]): 60
Wheat plant response rating (wheat; [7]): 60
Plant response rating, Wheat (wheat; Preemergence, 500 g ai/ha): 90
Bermudagrass plant response rating (bermudagrass; 62 g ai/ha, Preemergence, scale 0 to 100 (0 no effect, 100 complete control)): 100
Plant response rating, Bermudagrass (bermudagrass; [16]): 100
Plant response rating (0 to 100), Bermudagrass (bermudagrass; Preemergence): 100
Bermudagrass plant response rating (bermudagrass; [14]): 100
Velvetleaf plant response rating (velvetleaf [2]; [15]): 100
Plant response rating, Velvetleaf (velvetleaf [2]; [16]): 30
Surinam Grass plant response rating (Surinam grass; [15]): 75
Plant response rating, Surinam Grass (Surinam grass; [16]): 75
Nightshade plant response rating (eastern black nightshade; [15]): 98
Plant response rating, Nightshade (eastern black nightshade; [16]): 75
Lambsquarters plant response rating (lambsquarters; [15]): 0
Corn plant response rating (corn; [5]): 30
Corn plant response rating (corn; [6]): 60
Corn plant response rating (corn; [7]): 0
Plant response rating, Corn (corn; Preemergence, 500 g ai/ha): 70
Foxtail, Giant plant response rating (giant foxtail [3]; [5]): 80
Foxtail, Giant plant response rating (giant foxtail [3]; [6]): 90
Foxtail, Giant plant response rating (giant foxtail [3]; [7]): 100
Plant response rating, Foxtail, Giant (giant foxtail [3]; Preemergence, 500 g ai/ha): 100
Ragweed plant response rating (common ragweed; [15]): 30
Foxtail, Giant plant response rating (giant foxtail [4]; [15]): 100
Plant response rating, Foxtail, Giant (giant foxtail [4]; [16]): 100
Plant response rating (0 to 100), Foxtail, Giant (giant foxtail [4]; Preemergence): 100
Plant response rating, Rice (rice; [8]): 0
Plant response rating, Rice (rice; [9]): 0
Plant response rating, Rice (rice; [10]): 40
Plant response rating, Rice (rice; [11]): 80
Johnsongrass plant response rating (johnsongrass; [15]): 100
Plant response rating, Johnsongrass (johnsongrass; [16]): 100
Plant response rating (0 to 100), Johnsongrass (johnsongrass; Preemergence): 100
Pigweed plant response rating (redroot pigweed; [5]): 70
Pigweed plant response rating (redroot pigweed; [6]): 80
Pigweed plant response rating (redroot pigweed; [7]): 100
Plant response rating, Pigweed (redroot pigweed; Preemergence, 500 g ai/ha, 0 to 100 scale where 0 is no effect and 100 is complete control): 100
Goosegrass plant response rating (Goosegrass; [15]): 100
Plant response rating, Goosegrass (Goosegrass; [16]): 100
Plant response rating (0 to 100), Goosegrass (Goosegrass; Preemergence): 100
